Patent US9758537B2 (Achillion Pharmaceuticals, Inc., priority 2014, dated 2017)

These compounds were tested against Human factor D (Homo sapiens (Human), UniProt P00746) (assay: Human Factor D Assay). Conditions: human factor D 80 nM, substrate Z-L-Lys-SBzl, DTNB, OD405.
Human factor D, sequence (P00746 26-253): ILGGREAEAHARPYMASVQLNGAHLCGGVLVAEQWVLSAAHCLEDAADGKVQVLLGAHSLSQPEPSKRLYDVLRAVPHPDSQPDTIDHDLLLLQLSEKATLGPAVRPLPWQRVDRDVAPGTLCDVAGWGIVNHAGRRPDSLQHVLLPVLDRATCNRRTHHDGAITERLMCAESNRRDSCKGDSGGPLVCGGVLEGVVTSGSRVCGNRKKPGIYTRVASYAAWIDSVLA
Format: biochemical
Description: Human factor D (purified from human serum, Complement Technology, Inc.) at 80 nM final concentration is incubated with test compound at various concentrations for 5 minutes at room temperature in 50 mM Tris, 1M NaCl, pH 7.5. A synthetic substrate Z-L-Lys-SBzl and DTNB (Ellman's reagent) are added to final concentrations of 10 μM each. The increase in color is recorded at OD405 nm in a microplate in kinetic mode over 30 minutes with 30 second time points in a […]. IC50 values are calculated by non-linear regression from the percentage of inhibition of complement factor D activity as a function of test compound concentration.
With `CC(=O)c1cn(CC(=O)N2[C@H](C(=O)NCc3cccc(Cl)c3F)C[C@@H]3CCCC[C@@H]32)c2ccccc12` [Compound 1, (2S,3aS,7aS)-1-(2-(3-acetyl-1H-indol-1-yl)acetyl)-N-(3-chloro-2-fluorobenzyl)octahydro-1H-indole-2-carboxamide] the IC50 was under 1 µM. `CC(=O)n1cc(NC(=O)[C@@H]2C[C@@H](F)CN2C(=O)NCc2cccc(Cl)c2F)c2ccccc21` [Compound 3, (2S,4R)-N2-(1-acetyl-1H-indol-3-yl)-N1-(3-chloro-2-fluorobenzyl)-4-fluoropyrrolidine-1,2-dicarboxamide] showed an IC50 of over 10 µM. For `CC(=O)n1cc(NC(=O)[C@@H]2C[C@H](F)CN2C(=O)NCc2cccc(Cl)c2F)c2ccccc21` [Compound 4, (2S,4S)-N2-(1-acetyl-1H-indol-3-yl)-N1-(3-chloro-2-fluorobenzyl)-4-fluoropyrrolidine-1,2-dicarboxamide], the IC50 was over 10 µM. With `CC(=O)n1cc(NC(=O)[C@@H]2C[C@H](F)CN2C(=O)NCc2ccccc2)c2ccccc21` [Compound 5, (2S,4S)-N2-(1-acetyl-1H-indol-3-yl)-N1-benzyl-4-fluoropyrrolidine-1,2-dicarboxamide] the IC50 was over 10 µM. Work on `NC(=O)n1cc(NC(=O)N2C[C@H](F)C[C@H]2C(=O)NS(=O)(=O)c2cccc(Cl)c2F)c2ccccc21` [Compound 6, (2S,4R)-N1-(1-carbamoyl-1H-indol-3-yl)-N2-(3-chloro-2-fluorophenylsulfonyl)-4-fluoropyrrolidine-1,2-dicarboxamide] yielded an IC50 of over 10 µM. `CC(=O)n1cc(NC(=O)N2C[C@H](F)C[C@H]2C(=O)NS(=O)(=O)c2cccc(Cl)c2F)c2ccccc21` [Compound 7, (2S,4R)-N1-(1-acetyl-1H-indol-3-yl)-N2-(3-chloro-2-fluorophenylsulfonyl) - 4-fluoropyrrolidine-1,2-dicarboxamide] was tested, and the IC50 was over 10 µM. `CC(=O)n1cc(NC(=O)[C@H]2CC(F)(F)CN2C(=O)NCc2cccc(Cl)c2F)c2ccccc21` [Compound 8, (R)-N2-(1-acetyl-1H-indol-3-yl)-N1-(3-chloro-2-fluorobenzyl)-4,4-difluoropyrrolidine-1,2-dicarboxamide] was tested, and the IC50 was over 10 µM. Work on `CC(=O)n1cc(NC(=O)[C@H]2CCCN2C(=O)NCc2cccc(Cl)c2F)c2ccccc21` [Compound 9, (R)-N2-(1-acetyl-1H-indol-3-yl)-N1-(3-chloro-2-fluorobenzyl) pyrrolidine-1,2-dicarboxamide] yielded an IC50 of over 10 µM. `CC(=O)c1cn(CC(=O)N2C[C@H](F)C[C@H]2c2ncc(-c3cccc(Cl)c3)[nH]2)c2ccccc12` [Compound 11, 2-(3-acetyl-1H-indol-1-yl)-1-((2S,4R)-2-(5-(3-chlorophenyl)-1H-imidazol-2-yl)-4-fluoropyrrolidin-1-yl)ethanone] gave an IC50 of over 10 µM. `CC(=O)c1cn(CC(=O)N2C[C@H](F)C[C@H]2c2nc3cc(Cl)ccc3[nH]2)c2ccccc12` [Compound 15, 2-(3-acetyl-1H-indol-1-yl)-1-((2S,4R)-2-(5-chloro-1H-benzo[d]imidazol-2-yl)-4-fluoropyrrolidin-1-yl)ethanone] gave an IC50 of over 10 µM. `CC(=O)n1cc(NC(=O)[C@H]2CCCN2C(=O)Nc2cccc(OC(F)(F)F)c2F)c2ccccc21` [Compound 16, (R)-N2-(1-acetyl-1H-indol-3-yl)-N1-(2-fluoro-3-(trifluoromethoxy)phenyl)pyrrolidine-1,2-dicarboxamide] gave an IC50 of over 10 µM. With `CC(=O)n1cc(NC(=O)[C@H]2CC(F)(F)CN2C(=O)Cc2cccc(Cl)c2F)c2ccccc21` [Compound 17, (R)-N-(1-acetyl-1H-indol-3-yl)-1-(2-(3-chloro-2-fluorophenyl)acetyl)-4,4-difluoropyrrolidine-2-carboxamide] the IC50 was over 10 µM. For `CC(=O)c1cn(CC(=O)N2CC[C@@H](OCC3CC3)[C@H]2C(=O)NCc2cccc(Cl)c2F)c2ccccc12` [Compound 18, (2S,3R)-1-(2-(3-acetyl-1H-indol-1-yl)acetyl)-N-(3-chloro-2-fluorobenzyl)-3-(cyclopropylmethoxy) pyrrolidine-2-carboxamide], the IC50 was under 1 µM. Compound `COc1ccc2c(O[C@@H]3C[C@@H](C(=O)NCc4cccc(Cl)c4F)N(C(=O)Nc4cn(C(C)=O)c5ccccc45)C3)cc(-c3ccccc3)nc2c1` [Compound 19, (2S,4R)-N1-(1-acetyl-1H-indol-3-yl)-N2-(3-chloro-2-fluorobenzyl)-4-(7-methoxy-2-phenylquinolin-4-yloxy)pyrrolidine-1,2-dicarboxamide] has an IC50 of over 10 µM. `CC(=O)n1cc(NC(=O)Nc2cn(C(C)=O)c3ccccc23)c2ccccc21` [Compound 20, 1,3-bis(1-acetyl-1H-indol-3-yl)urea] showed an IC50 of over 10 µM. Work on `CC(=O)c1cn(CC(=O)N2C[C@H](F)[C@@H](OCC3CC3)[C@H]2C(=O)NCc2cccc(Cl)c2F)c2cc(O)ccc12` [Compound 21, (2S,3S,4S)-1-(2-(3-acetyl-6-hydroxy-1H-indol-1-yl)acetyl)-N-(3-chloro-2-fluorobenzyl)-3-(cyclopropylmethoxy)-4-fluoropyrrolidine-2-carboxamide] yielded an IC50 of under 1 µM. For `O=C(c1cn(CC(=O)N2[C@@H]3C[C@@H]3C[C@H]2C(=O)NCc2cccc(Cl)c2F)c2ccccc12)C1CC1` [Compound 22, (1R,3S,5R)-N-(3-chloro-2-fluorobenzyl)-2-(2-(3-(cyclopropanecarbonyl)-1H-indol-1-yl)acetyl)-2-azabicyclo[3.1.0]hexane-3-carboxamide], the IC50 was under 1 µM. `O=C(c1cn(CC(=O)N2C[C@H](F)C[C@H]2C(=O)NCc2cccc(Cl)c2F)c2ccccc12)C1CC1` [Compound 24, (2S,4R)-N-(3-chloro-2-fluorobenzyl)-1-(2-(3-(cyclopropanecarbonyl)-1H-indol-1-yl)acetyl)-4-fluoropyrrolidine-2-carboxamide] gave an IC50 of under 1 µM. Work on `CC(=O)c1cn(CC(=O)N2CC(F)C(OCC3CC3)[C@H]2C(=O)NCc2cccc(Cl)c2F)c2cc(O)ccc12` (stereo partly drawn) [Compound 25, (2S)-1-(2-(3-acetyl-6-hydroxy-1H-indol-1-yl)acetyl)-N-(3-chloro-2-fluorobenzyl)-3-(cyclopropylmethoxy)-4-fluoropyrrolidine-2-carboxamide] yielded an IC50 of under 1 µM. For `NC(=O)N1CC(NC(=O)[C@@H]2CCC[C@H]2C(=O)NCc2cccc(Cl)c2F)c2ccccc21` (stereo partly drawn) [Compound 26, (1R,2R)-N1-(1-carbamoylindolin-3-yl)-N2-(3-chloro-2-fluorobenzyl)cyclopentane-1,2-dicarboxamide], the IC50 was over 10 µM. `CC(=O)c1cn(CC(=O)N2C[C@H](F)C[C@H]2Cn2cc(-c3ccc(F)cc3)nn2)c2ccccc12` [Compound 27, 2-(3-acetyl-1H-indol-1-yl)-1-((2S,4R)-4-fluoro-2-((4-(4-fluorophenyl)-1H-1,2,3-triazol-1-yl)methyl)pyrrolidin-1-yl)ethanone] showed an IC50 of over 10 µM. In the case of `NC(=O)n1cc(NC(=O)N2C[C@H](F)C[C@H]2Cn2cc(-c3ccc(F)cc3)nn2)c2ccccc21` [Compound 28, 3-((2S,4R)-4-fluoro-2-((4-(4-fluorophenyl)-1H-1,2,3-triazol-1-yl)methyl)pyrrolidine-1-carboxamido)-1H-indole-1-carboxamide], the IC50 is reported as over 10 µM. For `COc1ccc2c(O[C@@H]3C[C@@H](C(=O)NCc4cccc(Cl)c4F)N(C(=O)Cn4cc(C(C)=O)c5ccccc54)C3)cc(-c3ccccc3)nc2c1` [Compound 29, (2S,4R)-1-(2-(3-acetyl-1H-indol-1-yl)acetyl)-N-(3-chloro-2-fluorobenzyl)-4-(7-methoxy-2-phenylquinolin-4-yloxy)pyrrolidine-2-carboxamide], the IC50 was over 10 µM. `NC(=O)N1C[C@H](F)C[C@H]1Cn1cc(-c2ccc(F)c(Cl)c2)nn1` [Compound 30, (2S,4R)-2-((4-(3-chloro-4-fluorophenyl)-1H-1,2,3-triazol-1-yl)methyl)-4-fluoropyrrolidine-1-carboxamide] gave an IC50 of over 10 µM. With `NC(=O)n1cc(NC(=O)C2=C(C(=O)NCc3cccc(Cl)c3F)CCC2)c2ccccc21` [Compound 31, N1-(1-carbamoyl-1H-indol-3-yl)-N2-(3-chloro-2-fluorobenzyl)cyclopent-1-ene-1,2-dicarboxamide] the IC50 was over 10 µM. Work on `CC(=O)c1cn(CC(=O)N2C[C@H](F)C[C@H]2C(=O)N2Cc3ccccc3C2)c2ccccc12` [Compound 33, 2-(3-acetyl-1H-indol-1-yl)-1-((2S,4R)-4-fluoro-2-(isoindoline-2-carbonyl)pyrrolidin-1-yl)ethanone] yielded an IC50 of over 10 µM. `CC(=O)c1cn(CC(=O)N2C[C@H](F)C[C@H]2C(=O)N(C)Cc2cccc(Cl)c2F)c2ccccc12` [Compound 34, (2S,4R)-1-(2-(3-acetyl-1H-indol-1-yl)acetyl)-N-(3-chloro-2-fluorobenzyl)-4-fluoro-N-methylpyrrolidine-2-carboxamide] gave an IC50 of over 10 µM. For `CC(=O)c1cn(CC(=O)N2[C@H](C(=O)NCc3cccc(Cl)c3F)C[C@@H]3CCCC[C@@H]32)c2cc(O)ccc12` [Compound 35, (2S,3aS,7aS)-1-(2-(3-acetyl-6-hydroxy-1H-indol-1-yl)acetyl)-N-(3-chloro-2-fluorobenzyl)octahydro-1H-indole-2-carboxamide], the IC50 was under 1 µM. With `N#Cc1cn(CC(=O)N2C[C@H](F)C[C@H]2C(=O)NCc2cccc(Cl)c2F)c2ccccc12` [Compound 36, (2S,4R)-N-(3-chloro-2-fluorobenzyl)-1-(2-(3-cyano-1H-indol-1-yl)acetyl)-4-fluoropyrrolidine-2-carboxamide] the IC50 was under 1 µM. `O=C1CCCc2c1c1ccccc1n2CC(=O)N1C[C@H](F)C[C@H]1C(=O)NCc1cccc(Cl)c1F` [Compound 37, (2S,4R)-N-(3-chloro-2-fluorobenzyl)-4-fluoro-1-(2-(4-oxo-3,4-dihydro-1H-carbazol-9(2H)-yl)acetyl)pyrrolidine-2-carboxamide] gave an IC50 of under 1 µM.
